How the values were obtained:
JAK1 = biological target: T1, JAK1 (Homo sapiens, UniProt P23458); assay: In vitro binding assays
T1 construct: Cellular proteins were prepared by mild sonication in lysis buffer; endogenous in cells

JNK = JNK (Homo sapiens, UniProt P45983); assay: In vitro binding assays
TTK = biological target: T2, TTK (Homo sapiens, UniProt P33981); assay: TTK inhibition assay ([γ-33P]ATP transfer to phosphorylated MBP); assay type: biochemical; set-up: A. Recombinant TTK enzyme; conditions: read-out: inhibition of the protein kinase activity of TTK, IC50
T2 sequence (P33981 1-857): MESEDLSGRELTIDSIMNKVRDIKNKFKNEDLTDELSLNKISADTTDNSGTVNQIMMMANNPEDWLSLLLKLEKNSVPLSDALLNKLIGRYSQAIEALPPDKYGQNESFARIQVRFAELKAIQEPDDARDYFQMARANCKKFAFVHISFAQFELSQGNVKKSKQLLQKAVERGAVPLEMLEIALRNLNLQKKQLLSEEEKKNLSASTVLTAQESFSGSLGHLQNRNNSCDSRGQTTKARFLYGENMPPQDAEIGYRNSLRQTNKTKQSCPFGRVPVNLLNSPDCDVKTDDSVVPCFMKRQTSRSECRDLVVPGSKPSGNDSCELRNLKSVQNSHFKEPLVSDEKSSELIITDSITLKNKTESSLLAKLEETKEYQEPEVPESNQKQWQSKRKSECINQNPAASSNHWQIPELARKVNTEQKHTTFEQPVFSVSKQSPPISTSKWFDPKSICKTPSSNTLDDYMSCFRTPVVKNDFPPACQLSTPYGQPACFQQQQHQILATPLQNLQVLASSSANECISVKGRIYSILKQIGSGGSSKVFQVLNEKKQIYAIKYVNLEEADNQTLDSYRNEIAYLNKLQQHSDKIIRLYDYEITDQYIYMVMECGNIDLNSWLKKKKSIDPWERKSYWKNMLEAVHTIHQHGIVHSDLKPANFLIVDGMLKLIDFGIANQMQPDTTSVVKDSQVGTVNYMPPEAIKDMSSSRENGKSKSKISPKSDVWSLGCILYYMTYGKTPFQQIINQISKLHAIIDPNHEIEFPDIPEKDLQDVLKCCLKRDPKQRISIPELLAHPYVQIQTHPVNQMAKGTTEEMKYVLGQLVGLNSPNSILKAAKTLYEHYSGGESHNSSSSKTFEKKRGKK
Experimental: The compounds of the invention were also tested in the following assay to determine TTK-inhibitory activity. This assay measures transfer of radioactive phosphate from ATP to a protein substrate in the presence or absence of a test compound.
MATERIALS: • A. Recombinant TTK enzyme; • B. Phosphorylated myelin basic protein (MBP); • C. [γ-^33P]ATP: 1 mCi/100 μL; • D. Positive Control: a proprietary compound known to have […] in this assay.
Final concentrations of reaction mixture components (50 μl total volume): 50 mM Tris-HCl, pH 7.5; 0.01% Triton X-100; 10 mM MgCl2; 25 ng TTK (˜4 nM); 5 μM Phosphorylated MBP; 40 μM ATP (1 μCi/well, adjusted ATP specific activity according to strength of radiolabeled ATP).
Mixes were assembled in the wells of a 96-well polypropylene plate as follows: 1 μL 50× compound to be tested; 39 μL 1.282× Reaction Mix; 10 μL 5×ATP Mix.
The following reaction/assay steps were then performed: • 1. Mix thoroughly and incubate at room temperature for 45 minutes; • 2. Add 70 μL/well, except in background wells, of 3% phosphoric acid to terminate reaction, and transfer 100 μL to P81 filter plate; • 3. Wash with 1% phosphoric acid, then dry the P81 filter plate completely; • 4. Add 100 μL/well MicroSint-20 (PerkinElmer #6013621) and seal; • 5.

Aurora A = biological target: T3, Aurora A (Homo sapiens, UniProt O14965); assay: In vitro binding assays
T3 sequence (O14965 1-403): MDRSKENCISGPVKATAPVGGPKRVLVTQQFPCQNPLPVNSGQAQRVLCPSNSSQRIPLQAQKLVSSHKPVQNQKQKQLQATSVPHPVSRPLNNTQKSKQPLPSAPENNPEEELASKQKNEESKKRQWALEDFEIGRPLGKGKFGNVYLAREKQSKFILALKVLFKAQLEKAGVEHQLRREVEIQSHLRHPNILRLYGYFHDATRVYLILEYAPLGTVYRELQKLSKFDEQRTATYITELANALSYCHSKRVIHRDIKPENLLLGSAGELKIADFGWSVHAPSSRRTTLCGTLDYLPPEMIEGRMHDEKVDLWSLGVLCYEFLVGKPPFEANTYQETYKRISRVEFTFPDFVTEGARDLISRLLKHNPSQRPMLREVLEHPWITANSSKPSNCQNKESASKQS

[1] = tested on: HCT116 colon cancer cell line; assay: HCT116 cytotoxicity assay (WST-1, 72 hours); assay type: cell-based; conditions: Homo sapiens, HCT-116, read-out: IC50 (concentration resulting in a 50% reduction in cell viability), HCT116 cells
Experimental: The compounds of the invention were tested in the following cytotoxicity assay to detect anti-cancer activity. This assay determined viability of various cell lines, when treated with a test compound, by determining the metabolic activity of proliferating cells using the tetrazolium salt WST. While assays conducted with HCT116 colon cancer cell line cells were generally used to compare the relative efficacy of the compounds being tested, OVCAR8 and NCI/ADR-Res cell lines were also used according to the same procedure.
MATERIALS: • A. 10% FBS/L-glutamine/NEAA/HEPES/Na-Pyruvate/RPMI, phenol-free; • B. HCT116, OVCAR8 or NCI/ADR-Res cell lines (new vial thawed every 8-10 weeks); • C. Test compounds, typically 50 mM stocks diluted in DMSO; • D. Clear, flat, TC-surface bottomed 96-well microplates (Corning #3595); • E. WST-1: Dojindo, W201 (powder).
METHODS: • 1. […]
• b) Without removing culture medium, 0.4 μl of a 250× concentrated solution of test compound in growth media was added to HCT116, OVCAR8 or NCI/ADR-Res plates. Plates were returned to incubator and left to incubate for 72 hours. • c) 10 μL of prepared WST-1 was added to treated cells and allowed to incubate at 37° C. for 90 minutes. • d) Absorbances at 490 and 650 nm were read and viability of treated cells relative to DMSO control was determined.

Chain of JNK (P45983 whole entry): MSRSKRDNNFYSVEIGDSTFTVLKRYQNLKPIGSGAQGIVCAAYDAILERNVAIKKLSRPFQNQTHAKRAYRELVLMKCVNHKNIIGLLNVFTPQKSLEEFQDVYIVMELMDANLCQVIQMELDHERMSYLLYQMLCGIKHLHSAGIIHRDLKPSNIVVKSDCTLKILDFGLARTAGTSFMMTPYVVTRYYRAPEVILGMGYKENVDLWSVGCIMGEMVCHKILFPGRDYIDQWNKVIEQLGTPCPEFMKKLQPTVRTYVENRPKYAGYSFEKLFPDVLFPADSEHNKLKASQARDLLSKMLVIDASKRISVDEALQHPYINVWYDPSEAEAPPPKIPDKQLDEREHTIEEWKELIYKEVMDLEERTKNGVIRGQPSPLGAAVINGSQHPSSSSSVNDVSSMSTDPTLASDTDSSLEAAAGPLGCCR
T1 sequence (P23458 whole entry, species assumed): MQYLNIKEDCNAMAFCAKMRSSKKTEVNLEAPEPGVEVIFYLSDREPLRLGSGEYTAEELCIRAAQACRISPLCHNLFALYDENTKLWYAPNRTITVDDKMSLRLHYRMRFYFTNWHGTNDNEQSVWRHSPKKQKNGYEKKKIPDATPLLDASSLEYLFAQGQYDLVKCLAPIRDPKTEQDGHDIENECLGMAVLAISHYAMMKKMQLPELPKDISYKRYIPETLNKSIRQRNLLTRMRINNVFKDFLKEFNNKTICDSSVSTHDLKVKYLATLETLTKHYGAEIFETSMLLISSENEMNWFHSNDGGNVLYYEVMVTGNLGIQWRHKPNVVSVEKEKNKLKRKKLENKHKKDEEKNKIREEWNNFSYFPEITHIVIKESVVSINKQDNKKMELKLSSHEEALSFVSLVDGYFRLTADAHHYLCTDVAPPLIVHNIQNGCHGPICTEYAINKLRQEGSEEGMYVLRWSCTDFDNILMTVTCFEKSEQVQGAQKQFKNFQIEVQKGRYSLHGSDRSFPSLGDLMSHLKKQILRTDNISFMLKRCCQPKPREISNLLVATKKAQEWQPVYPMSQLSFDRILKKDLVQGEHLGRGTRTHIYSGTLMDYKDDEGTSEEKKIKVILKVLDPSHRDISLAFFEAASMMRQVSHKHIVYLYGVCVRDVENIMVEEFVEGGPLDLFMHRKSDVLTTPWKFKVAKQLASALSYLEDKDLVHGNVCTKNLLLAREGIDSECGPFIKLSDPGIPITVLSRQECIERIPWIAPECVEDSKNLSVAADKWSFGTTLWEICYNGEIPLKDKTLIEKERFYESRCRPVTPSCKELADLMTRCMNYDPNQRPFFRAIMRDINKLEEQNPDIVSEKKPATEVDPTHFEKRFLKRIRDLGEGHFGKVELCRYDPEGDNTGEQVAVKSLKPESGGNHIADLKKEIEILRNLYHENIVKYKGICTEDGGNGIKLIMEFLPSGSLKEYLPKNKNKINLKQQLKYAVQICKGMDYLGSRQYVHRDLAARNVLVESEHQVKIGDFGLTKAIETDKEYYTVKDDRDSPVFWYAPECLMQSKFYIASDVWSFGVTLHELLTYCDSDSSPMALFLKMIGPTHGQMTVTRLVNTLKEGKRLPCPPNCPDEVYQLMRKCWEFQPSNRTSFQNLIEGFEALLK

SMILES: NCCCOc1ccc(Nc2nc(NC3CCCCC3)c3nc[nH]c3n2)cc1 [N2-[4-(3-aminopropoxy)phenyl]-N-6-cyclohexyl-9H-purine-2,6-diamine]
- IC50 (JAK1): 320 nM
- IC50 (JNK): 57 nM
- IC50 (TTK): 8 nM
- IC50 (Aurora A): 420 nM
- IC50 [1]: 1200 nM
